# Laboratory results reported in PubChem BioAssay (NCI).
#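 1) Cells in 96-well plates. 2) Compound, 48 h, 5 concentrations. 3) Linear interpolation between surrounding doses. 4) Unreached endpoint = highest concentration. At the TGI there is no net growth.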
# Experiments:
# Experiment in all cases: inhibition of tumour cell growth, NCI panel, 48 h
# [1] = system: 786-0 renal
# [2] = system: A498 renal
# [3] = system: A549 NSCLC
# [4] = system: ACHN renal
# [5] = system: BT-549 breast
# [6] = system: CAKI-1 renal
# [7] = system: COLO 205 colon
# [8] = system: DU-145 prostate
# [9] = system: EKVX NSCLC
# [10] = system: HCT-116 colon
# [11] = system: HCT-15 colon
# [12] = system: HL-60(TB) leukemia
# [13] = system: HOP-62 NSCLC
# [14] = system: HOP-92 NSCLC
# [15] = system: HS 578T breast
# [16] = system: HT29 colon
# [17] = system: IGROV1 ovarian
# [18] = system: K-562 leukemia
# [19] = system: KM12 colon
# [20] = system: LOX IMVI melanoma
# [21] = system: M14 melanoma
# [22] = system: MALME-3M melanoma
# [23] = system: MCF7 breast
# [24] = system: MDA-MB-231 breast
# [25] = system: MDA-MB-435
# [26] = system: MDA-N
# [27] = system: MOLT-4 leukemia
# [28] = system: NCI-H226 lung
# [29] = system: NCI-H23 lung
# [30] = system: NCI-H460 lung
# [31] = system: NCI-H522 lung
# [32] = system: NCI/ADR-RES ovarian
# [33] = system: OVCAR-3 ovarian
# [34] = system: OVCAR-4 ovarian
# [35] = system: OVCAR-5 ovarian
# [36] = system: OVCAR-8 ovarian
# [37] = system: PC-3 prostate
# [38] = system: RPMI-8226 leukemia
# [39] = system: RXF 393 renal
# [40] = system: SF-268 CNS
# [41] = system: SF-295 CNS
# [42] = system: SF-539 CNS
# [43] = system: SK-MEL-2 melanoma
# [44] = system: SK-MEL-28 melanoma
# [45] = system: SK-MEL-5 melanoma
# [46] = system: SK-OV-3 ovarian
# [47] = system: SN12C renal
# [48] = system: SNB-19 CNS
# [49] = system: SNB-75 CNS
# [50] = system: SR leukemia
# [51] = system: SW-620 colon
# [52] = system: T-47D breast
# [53] = system: TK-10 renal
# [54] = system: U251 CNS
# [55] = system: UACC-257 melanoma
# [56] = system: UACC-62 melanoma
# [57] = system: UO-31 renal
# [58] = system: CCRF-CEM leukemia
# [59] = system: HCC-2998 colon
smiles,measurement,setting,value
O=C(O)C1C(C(=O)O)C23CC2(C(=O)O)C2(C(=O)O)CCC3=C3CCCC312 (stereo unspecified),TGI,[1],> 100 µM
same,TGI,[2],62.6 µM
same,TGI,[3],> 100 µM
same,TGI,[4],59.2 µM
same,TGI,[5],69.9 µM
same,TGI,[6],81.9 µM
same,TGI,[7],16.8 µM
same,TGI,[8],34.1 µM
same,TGI,[9],54.3 µM
same,TGI,[10],66.7 µM
same,TGI,[11],> 100 µM
same,TGI,[12],18.3 µM
same,TGI,[13],22.4 µM
same,TGI,[14],36.5 µM
same,TGI,[15],7.8 µM
same,TGI,[16],44.8 µM
same,TGI,[17],51.6 µM
same,TGI,[18],95.5 µM
same,TGI,[19],88.4 µM
same,TGI,[20],28.1 µM
same,TGI,[21],> 100 µM
same,TGI,[22],15.2 µM
same,TGI,[23],63.3 µM
same,TGI,[24],41 µM
same,TGI,[25],49.8 µM
same,TGI,[26],89.2 µM
same,TGI,[27],30.2 µM
same,TGI,[28],27.5 µM
same,TGI,[29],36.4 µM
same,TGI,[30],20 µM
same,TGI,[31],16 µM
same,TGI,[32],> 100 µM
same,TGI,[33],11.7 µM
same,TGI,[34],80.6 µM
same,TGI,[35],47.3 µM
same,TGI,[36],64.4 µM
same,TGI,[37],31.2 µM
same,TGI,[38],37.9 µM
same,TGI,[39],37.7 µM
same,TGI,[40],22.5 µM
same,TGI,[41],20.8 µM
same,TGI,[42],34.8 µM
same,TGI,[43],38.8 µM
same,TGI,[44],29.9 µM
same,TGI,[45],18.2 µM
same,TGI,[46],36.6 µM
same,TGI,[47],36.4 µM
same,TGI,[48],73.6 µM
same,TGI,[49],93.5 µM
same,TGI,[50],6.6 µM
same,TGI,[51],> 100 µM
same,TGI,[52],53.5 µM
same,TGI,[53],38.1 µM
same,TGI,[54],23.8 µM
same,TGI,[55],15.4 µM
same,TGI,[56],23.5 µM
same,TGI,[57],33.2 µM
COc1ccc(OC2OC(COC(c3ccccc3)(c3ccc(OC)cc3)c3ccc(OC)cc3)C(O)C(O)C2O)cc1 (stereo unspecified),TGI,[1],5.87 µM
same,TGI,[2],25.3 µM
same,TGI,[3],11.8 µM
same,TGI,[4],14.3 µM
same,TGI,[5],27 µM
same,TGI,[6],16.2 µM
same,TGI,[58],5.39 µM
same,TGI,[7],9.85 µM
same,TGI,[8],35.7 µM
same,TGI,[9],17.3 µM
same,TGI,[59],16.4 µM
same,TGI,[10],10.7 µM
same,TGI,[11],46.4 µM
same,TGI,[12],7.59 µM
same,TGI,[13],24.5 µM
same,TGI,[15],19.1 µM
same,TGI,[16],5.96 µM
same,TGI,[17],20.2 µM
same,TGI,[18],10.2 µM
same,TGI,[19],14.7 µM
same,TGI,[20],3.95 µM
same,TGI,[21],7.05 µM
same,TGI,[22],21.2 µM
same,TGI,[23],14.7 µM
same,TGI,[24],18.1 µM
same,TGI,[25],13 µM
same,TGI,[26],17.2 µM
same,TGI,[27],4.55 µM
same,TGI,[28],28.3 µM
same,TGI,[29],15.3 µM
same,TGI,[30],9.21 µM
same,TGI,[31],11.7 µM
same,TGI,[32],29.2 µM
same,TGI,[33],14.7 µM
same,TGI,[35],20.7 µM
same,TGI,[37],9.59 µM
same,TGI,[38],> 100 µM
same,TGI,[40],11 µM
same,TGI,[41],15 µM
same,TGI,[42],17 µM
same,TGI,[43],15 µM
same,TGI,[44],10.1 µM
same,TGI,[45],16.1 µM
same,TGI,[46],18.8 µM
same,TGI,[47],6.59 µM
same,TGI,[48],26.7 µM
same,TGI,[49],14 µM
same,TGI,[50],> 100 µM
same,TGI,[51],14.3 µM
same,TGI,[52],21.4 µM
same,TGI,[54],13.3 µM
same,TGI,[55],20.1 µM
same,TGI,[56],14.1 µM
same,TGI,[57],4.79 µM
